Test results taken from patent publication US6914045B2, “Glycopeptide antibiotics” (Wyeth Holdings Corporation, priority 2001, dated 2005).
≈ marks a conversion by molar mass, not a printed value.

What was measured:
Assay in all cases: in vitro antibacterial evaluation, MIC by broth dilution
Type in all cases: cell-based
Streptococcus sp. = conditions: broth dilution, 18 hours at 35° C.
Procedure, shortened: (§1)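 Broth dilution per NCCLS standard M7-A2 in Muller-Hinton II […], with an inoculum of 5×10^5 CFU/mL and antibiotic spanning 64-0.06 μg/mL. The MIC is the lowest concentration that inhibits growth of the organism.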

Enterococcus sp. = conditions: broth dilution, 18 hours at 35° C.
Procedure, shortened: as §1

Escherichia coli = conditions: 18 hours at 35° C., strain ATCC 25922
Procedure, shortened: as §1

Staphylococcus sp. = conditions: broth dilution, 18 hours at 35° C.
Procedure, shortened: as §1

## CC(c1ccccc1)C1NC(=O)CNC(=O)C(CO)NC(=O)C(C(O)C2CNC(=N)N2C2OC(CO)C(O)C(O)C2O)NC(=O)C(C(O)C2CNC(=N)N2)NC(=O)C(Cc2ccc(OC3OC(CO)C(OC4OC(COC(=O)OCc5ccccc5)C(O)C(O)C4O)C(O)C3O)cc2)NC1=O (stereo not drawn) [Example 101a]
Streptococcus sp.; Streptococcus agalactiae (GC 4564)
  MIC Streptococcus agalactiae (GC 4564): 1 µg/mL (≈ 0.7 µM)
Streptococcus sp.; Streptococcus pneumoniae (GC 4565)
  MIC Streptococcus pneumoniae (GC 4565): <0.5 µg/mL
Streptococcus sp.; Streptococcus pyogenes (ID-3187)
  MIC Streptococcus pyogenes (ID-3187): 1 µg/mL (≈ 0.7 µM)
Streptococcus sp.; strain GC 4564
  MIC Streptococcus agalactiae (GC 4564): 1 µg/mL (≈ 0.7 µM)
Streptococcus sp.; strain GC 4565
  MIC Streptococcus pneumoniae (GC 4565): <0.5 µg/mL
Streptococcus sp.; strain ID-3187
  MIC Streptococcus pyogenes (ID-3187): 1 µg/mL (≈ 0.7 µM)
Enterococcus sp.; Enterococcus avium (GC 4558)
  MIC Enterococcus avium (GC 4558): 16 µg/mL (≈ 11.2 µM)
Enterococcus sp.; Enterococcus faecalis (ATCC 29212)
  MIC Enterococcus faecalis (ATCC 29212): 16 µg/mL (≈ 11.2 µM)
Enterococcus sp.; Enterococcus faecalis (GC 2242)
  MIC Enterococcus faecalis (GC 2242): 8 µg/mL (≈ 5.6 µM)
Enterococcus sp.; Enterococcus faecalis (GC 4552)
  MIC Enterococcus faecalis (GC 4552): 16 µg/mL (≈ 11.2 µM)
Enterococcus sp.; Enterococcus faecalis (GC 4553)
  MIC Enterococcus faecalis (GC 4553): 16 µg/mL (≈ 11.2 µM)
Enterococcus sp.; Enterococcus faecalis (GC 4554)
  MIC Enterococcus faecalis (GC 4554): 16 µg/mL (≈ 11.2 µM)
Enterococcus sp.; Enterococcus faecium (GC 2243)
  MIC Enterococcus faecium (GC 2243): 16 µg/mL (≈ 11.2 µM)
Enterococcus sp.; Enterococcus faecium (GC 4556)
  MIC Enterococcus faecium (GC 4556): 16 µg/mL (≈ 11.2 µM)
Enterococcus sp.; Enterococcus faecium (GC 4557)
  MIC Enterococcus faecium (GC 4557): 2 µg/mL (≈ 1.4 µM)
Enterococcus sp.; strain ATCC 29212
  MIC Enterococcus faecalis (ATCC 29212): 16 µg/mL (≈ 11.2 µM)
Enterococcus sp.; strain GC 2242
  MIC Enterococcus faecalis (GC 2242): 8 µg/mL (≈ 5.6 µM)
Enterococcus sp.; strain GC 2243
  MIC Enterococcus faecium (GC 2243): 16 µg/mL (≈ 11.2 µM)
Enterococcus sp.; strain GC 4552
  MIC Enterococcus faecalis (GC 4552): 16 µg/mL (≈ 11.2 µM)
Enterococcus sp.; strain GC 4553
  MIC Enterococcus faecalis (GC 4553): 16 µg/mL (≈ 11.2 µM)
Enterococcus sp.; strain GC 4554
  MIC Enterococcus faecalis (GC 4554): 16 µg/mL (≈ 11.2 µM)
Enterococcus sp.; strain GC 4556
  MIC Enterococcus faecium (GC 4556): 16 µg/mL (≈ 11.2 µM)
Enterococcus sp.; strain GC 4557
  MIC Enterococcus faecium (GC 4557): 2 µg/mL (≈ 1.4 µM)
Enterococcus sp.; strain GC 4558
  MIC Enterococcus avium (GC 4558): 16 µg/mL (≈ 11.2 µM)
Escherichia coli
  MIC Escherichia coli (ATCC 25922): 64 µg/mL (≈ 44.8 µM)
Staphylococcus sp.
  MIC Coagulase Negative Staphylococcus (GC 4547): 1 µg/mL (≈ 0.7 µM)
  MIC Coagulase Negative Staphylococcus (GC 4548): 1 µg/mL (≈ 0.7 µM)
  MIC Coagulase Negative Staphylococcus (GC 4549): 1 µg/mL (≈ 0.7 µM)
  MIC Coagulase Negative Staphylococcus (GC 4551): 2 µg/mL (≈ 1.4 µM)
  MIC Coagulase Negative Staphylococcus (ID-3941): 1 µg/mL (≈ 0.7 µM)
  MIC Staphylococcus aureus (ATCC 29213): 2 µg/mL (≈ 1.4 µM)
  MIC Staphylococcus aureus (GC 1131): 4 µg/mL (≈ 2.8 µM)
  MIC Staphylococcus aureus (GC 4541): 2 µg/mL (≈ 1.4 µM)
  MIC Staphylococcus aureus (GC 4542): 4 µg/mL (≈ 2.8 µM)
  MIC Staphylococcus aureus (GC 4544): 4 µg/mL (≈ 2.8 µM)
  MIC Staphylococcus aureus (GC 4545): 4 µg/mL (≈ 2.8 µM)
  MIC Staphylococcus aureus-SMITH (GC 4543): 8 µg/mL (≈ 5.6 µM)
  MIC Staphylococcus haemolyticus (GC 4546): 1 µg/mL (≈ 0.7 µM)
Staphylococcus sp.; strain GC 4546
  MIC Staphylococcus haemolyticus (GC 4546): 1 µg/mL (≈ 0.7 µM)
Staphylococcus sp.; strain GC 4547
  MIC Coagulase Negative Staphylococcus (GC 4547): 1 µg/mL (≈ 0.7 µM)
Staphylococcus sp.; strain GC 4548
  MIC Coagulase Negative Staphylococcus (GC 4548): 1 µg/mL (≈ 0.7 µM)
Staphylococcus sp.; strain GC 4549
  MIC Coagulase Negative Staphylococcus (GC 4549): 1 µg/mL (≈ 0.7 µM)
Staphylococcus sp.; strain GC 4551
  MIC Coagulase Negative Staphylococcus (GC 4551): 2 µg/mL (≈ 1.4 µM)
Staphylococcus sp.; strain ID-3941
  MIC Coagulase Negative Staphylococcus (ID-3941): 1 µg/mL (≈ 0.7 µM)
Staphylococcus sp.; strain SMITH GC 4543
  MIC Staphylococcus aureus-SMITH (GC 4543): 8 µg/mL (≈ 5.6 µM)
Staphylococcus sp.; strain ATCC 29213
  MIC Staphylococcus aureus (ATCC 29213): 2 µg/mL (≈ 1.4 µM)
Staphylococcus sp.; strain GC 1131
  MIC Staphylococcus aureus (GC 1131): 4 µg/mL (≈ 2.8 µM)
Staphylococcus sp.; strain GC 4541
  MIC Staphylococcus aureus (GC 4541): 2 µg/mL (≈ 1.4 µM)
Staphylococcus sp.; strain GC 4542
  MIC Staphylococcus aureus (GC 4542): 4 µg/mL (≈ 2.8 µM)
Staphylococcus sp.; strain GC 4544
  MIC Staphylococcus aureus (GC 4544): 4 µg/mL (≈ 2.8 µM)
Staphylococcus sp.; strain GC 4545
  MIC Staphylococcus aureus (GC 4545): 4 µg/mL (≈ 2.8 µM)
